US7459458B2, “Polymorph of N-methyl-N-(3-{3-[2-thienylcarbonyl]-pyrazol-[1,5-α]-pyrimidin-7-yl}phenyl)acetamide and compositions and methods related thereto” (Neurocrine Biosciences, Inc., priority 2002, dated 2008)

Experiment: Interconversion experiments (slurry) to evaluate thermodynamic stability of Compound 1 at room temperature
Format: physicochemical
Conditions: agitated 16 days
Procedure: Interconversion experiments were carried out to evaluate the thermodynamic stability of Compound 1 at room temperature. Three slurries were prepared by making saturated isopropanol solutions of Compound 1, filtering the solutions through 0.2 μm filters, and then adding an amount (in the form of crystals) of a polymorphic form of Compound 1. To the first slurry, equal amounts of both polymorph Form II and polymorph Form III (i.e., approximately 25 mg each) were added; to the second slurry, equal amounts of polymorph From I and polymorph Form III (i.e., approximately 25 mg each) were added; and to the third slurry, approximately 25 mg of polymorph Form III was added. The slurries were then agitated for 16 days. The resulting solids were collected by vacuum filtration, air-dried, and analyzed using XRPD.

## CC(=O)N(C)c1cccc(-c2ccnc3c(C(=O)c4cccs4)cnn23)c1 [polymorph Form III, N-methyl-N-(3-{3-[2-thienylcarbonyl]-pyrazol-[1,5-α]-pyrimidin-7-yl}phenyl)acetamide]
Saturated isopropanol slurry seeded with approx. 25 mg polymorph Form III alone
  solid form obtained from slurry (XRPD): exclusively polymorph Form III
Saturated isopropanol slurry seeded with equal amounts (approx. 25 mg each) of polymorph Form I and Form III
  solid form obtained from slurry (XRPD): polymorph Form III as the predominant product, with only a minor amount of polymorph Form I
Saturated isopropanol slurry seeded with equal amounts (approx. 25 mg each) of polymorph Form II and Form III
  solid form obtained from slurry (XRPD): exclusively polymorph Form III
